# Measured values published in patent publication US6518282B1, “4-Arylpiperidine derivatives for the treatment of pruritus” (Pfizer Inc., priority 1999, dated 2003).
# Tested on: hind leg scratching behaviour induced in rats by the administration of a known pruritogenic agent
# Details: rats challenged s.c. with 5-methoxytryptamine hydrochloride (4 mg/3 mL/kg); test compound by subcutaneous injection in aqueous micelle formulation; scratching score totalled after 25 minutes vs control group
# Procedure: The compounds of the invention are evaluated for their activity as antipruritic agents by measuring their ability to inhibit the hind leg scratching behaviour induced in rats by the administration of a known pruritogenic agent. […] The test is performed as follows:
# Male Wistar rats (approximately 150 g body weight) are challenged with a pruritogen by subcutaneous injection of 5-methoxytryptamine hydrochloride (4 mg/3 mL/kg) dissolved in physiological saline into the scruff of the neck. At this dose a constant and quantifiable hindleg scratching response lasting up to 90 minutes is obtained.
# The test compound is administered to the test animals by subcutaneous injection in an aqueous micelle formulation. The test compound is prepared in the following manner. […] The compounds can be administered pre- or post-challenge or may be administered at the same time as the pruritogenic challenge.
# After the pruritogen challenge has been administered, hindleg scratching is scored for each animal by recording the presence or absence of scratching during each 30 second interval as 1 or 0 scored respectively. The score for each animal is totalled after 25 minutes (maximum score 50).
structure (smiles),measurement,value
CCOCCN1CC[C@@](C)(c2cccc(O)c2)[C@H](C)C1 (racemic) [Example 5],anti-pruritic activity,display anti-pruritic activity
